Structures can show the parent of a compound that is named as a salt. Where two headings read alike, the source gives them in different places.
Tests used:
[1] = tested on: cGAS activity in THP1 cells (IFNb as marker); experiment: Cellular assay to measure cGAS activity (IFNb production in PMA-differentiated THP1 cells stimulated by RDG-Adenovirus-GFP); type: cell-based, human; conditions: PMA differentiated, RDG-Adenovirus-GFP 1000 MOI, IFNb AlphaLISA, overnight incubation, read-out: IC50 (μM), Cellular assay for Compounds 95-348
Protocol: Cellular assay to measure cGAS activity: Use THP1 cell line from ATCC to determine inhibition of cGAS activity by test compounds in human cells. Plate cells on 96-well plates at 0.2×10^6/well and differentiate with phorbol myristate acetate (PMA) at 37° C./5% CO2. After 24 hours, replace PMA containing media with media lacking PMA and further incubate overnight. Stimulate cells were then by RDG-Adenovirus-GFP (Vector Biolabs #1768) at 1000 MOI for 4 hours prior to the addition of test compounds. After overnight incubation, transfer 10 μL of the media from each well to a new plate for IFNb analysis as a marker for cGAS activity. Measure quantification of IFNb with an IFNb AlphaLISA Detection kit (Perkin Elmer AL3133F) by mixing the acceptor beads with the cell supernatant followed by the addition of the biotinylated antibody and donor beads. Measure the relative fluorescence signal produced from the interaction of the donor and acceptor beads by a PHERAStar AlphaLISA protocol and evaluate the inhibitory effect of a compound by plotting specific inhibition of IFNb production against log concentration of the test compound. Calculate IC50 values using a 4-parameter non-linear logistic equation (y=(S0+((SInf−S0)/(1+((qAC50/x)^nHill))))).

recombinant human cGAS = recombinant human cGAS (Homo sapiens (Human), UniProt Q8N884); experiment: In vitro inhibition assay of cGAS activity (cGAMP production, RapidFire mass spectrometry); type: biochemical; conditions: 10 nM recombinant human cGAS, 60 nM 75-bp dsDNA, ATP, GTP, room temperature 3 hours, read-out: IC50 (μM), In vitro inhibition assay for Compounds 95-348
recombinant human cGAS, sequence (Q8N884 whole entry): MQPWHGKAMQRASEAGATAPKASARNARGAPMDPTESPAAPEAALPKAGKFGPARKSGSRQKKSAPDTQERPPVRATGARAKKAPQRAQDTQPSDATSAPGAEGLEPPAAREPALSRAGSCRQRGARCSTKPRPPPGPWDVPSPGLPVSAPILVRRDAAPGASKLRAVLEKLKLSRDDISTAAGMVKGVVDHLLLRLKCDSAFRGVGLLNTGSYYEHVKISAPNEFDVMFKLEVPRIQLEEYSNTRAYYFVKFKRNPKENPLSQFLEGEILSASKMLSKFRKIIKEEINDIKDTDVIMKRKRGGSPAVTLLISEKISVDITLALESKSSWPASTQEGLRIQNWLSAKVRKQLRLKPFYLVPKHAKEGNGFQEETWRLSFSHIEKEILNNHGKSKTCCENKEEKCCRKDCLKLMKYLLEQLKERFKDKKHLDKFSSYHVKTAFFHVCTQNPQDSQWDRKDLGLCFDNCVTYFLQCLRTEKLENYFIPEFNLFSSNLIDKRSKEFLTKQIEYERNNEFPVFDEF
Procedure, shortened: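 Full-length His6-tagged human cGAS (10 nM, E. coli-expressed) was incubated 3 h at room temperature with 60 nM 75-bp dsDNA, ATP, 50 μM GTP and compound at pH 7.5 with 5 mM MgCl2. cGAMP formation was measured by RapidFire mass spectrometry, and IC50 was taken from a 4-parameter logistic fit.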

[2] = Homo sapiens, THP-1, THP1 cells

| IC50 [1, 2] | IC50 (recombinant human cGAS) | IC50 ([1]; THP1 cells) | SMILES |
| --- | --- | --- | --- |
| > 10 µM | 0.0356 µM | – | O[C@H]1CC[C@@H](Oc2cc(Cl)c(Cl)c3[nH]cc(-c4cn[nH]c4)c23)C1 (racemic) [Example 100, Cis-3-((6,7-Dichloro-3-(1H-pyrazol-4-yl)-1H-indol-4-yl)oxy)cyclopentan-1-ol (racemic mixture)] |
| 1.38 µM | 0.0165 µM | – | OC[C@@H]1C[C@@H]1Oc1cc(Cl)c(Cl)c2[nH]cc(-c3cn[nH]c3)c12 (racemic) [Example 137, Cis-[2-[[6,7-Dichloro-3-(1H-pyrazol-4-yl)-1H-indol-4-yl]oxy]cyclopropyl]methanol hydrochloride] |
| 0.351 µM | 0.0158 µM | – | O[C@H]1CC[C@H](Nc2cc(Cl)c(Cl)c3[nH]cc(-c4cn[nH]c4)c23)C1 (racemic) [Example 209, trans-3-[[6,7-Dichloro-3-(1H-pyrazol-4-yl)-1H-indol-4-yl]amino]cyclopentanol (racemic mixture)] |
| 0.556 µM | 0.0301 µM | – | O[C@@H]1C[C@H](Oc2cc(Cl)c(Cl)c3[nH]cc(-c4cn[nH]c4)c23)[C@@H](O)C1 (racemic) [Example 220, 4-[[6,7-Dichloro-3-(1H-pyrazol-4-yl)-1H-indol-4-yl]oxy]cyclopentane-1,3-diol (racemic mixture)] |
| – | 0.0146 µM | 2.73 µM | O=C(CO)NC1Cc2c(-c3cn[nH]c3)c3ccc(Cl)c(Cl)c3n2C1 (single isomer, unassigned) [Example 247, N-(5,6-Dichloro-9-(1H-pyrazol-4-yl)-2,3-dihydro-1H-pyrrolo[1,2-a]indol-2-yl)-2-hydroxyacetamide] |
| 2.34 µM | 0.0452 µM | – | OCC(O)CNc1cc(Cl)c(Cl)c2[nH]cc(-c3cn[nH]c3)c12 (single isomer, unassigned) [Example 261, 3-[[6,7-Dichloro-3-(1H-pyrazol-4-yl)-1H-indol-4-yl]amino]propane-1,2-diol] |
| > 10 µM | 0.464 µM | – | OCCC1CCn2c1c(-c1cn[nH]c1)c1ccc(Cl)c(Cl)c12 (single isomer, unassigned; isomer 1) [Example 242, 2-(5,6-Dichloro-9-(1H-pyrazol-4-yl)-2,3-dihydro-1H-pyrrolo[1,2-a]indol-1-yl)ethan-1-ol isomer 1] |
| > 10 µM | – | – | Cn1ncnc1COCC(=O)N1CCn2c(c(-c3cn[nH]c3)c3c(OCC#N)cc(Cl)c(Cl)c32)C1 [Example 181] |
| > 10 µM | – | – | NC1CCn2c1c(-c1cn[nH]c1)c1ccc(Cl)c(Cl)c12 (centres unmarked) [Example 241, 5,6-Dichloro-9-(1H-pyrazol-4-yl)-2,3-dihydro-1H-pyrrolo[1,2-a]indol-1-amine] |
| – | 0.0801 µM | – | CN(C)C1(CC(=O)N2CCn3c(c(-c4cn[nH]c4)c4ccc(Cl)c(Cl)c43)C2)COC1 [Example 330, 1-(6,7-Dichloro-10-(1H-pyrazol-4-yl)-3,4-dihydropyrazino[1,2-a]indol-2(1H)-yl)-2-(3-(dimethylamino)oxetan-3-yl)ethan-1-one] |

More lines, now with the values behind:

| SMILES | IC50 [1, 2] | IC50 (recombinant human cGAS) | IC50 ([1]; THP1 cells) |
| --- | --- | --- | --- |
| O=C(CO)NC1Cc2c(-c3cn[nH]c3)c3ccc(Cl)c(Cl)c3n2C1 (single isomer, unassigned) [Example 248, N-(5,6-Dichloro-9-(1H-pyrazol-4-yl)-2,3-dihydro-1H-pyrrolo[1,2-a]indol-2-yl)-2-hydroxyacetamide] | – | 0.0396 µM | > 10 µM |
| O=C1NCC(C(=O)N2CCn3c(c(-c4cn[nH]c4)c4ccc(Cl)c(Cl)c43)C2)O1 (single isomer, unassigned) [Example 259, 5-[6,7-Dichloro-10-(1H-pyrazol-4-yl)-3,4-dihydro-1H-pyrazino[1,2-a]indole-2-carbonyl]oxazolidin-2-one] | – | 0.0373 µM | 0.765 µM |
| O=C1NCC(C(=O)N2CCn3c(c(-c4cn[nH]c4)c4ccc(Cl)c(Cl)c43)C2)O1 (single isomer, unassigned) [Example 260, 5-[6,7-Dichloro-10-(1H-pyrazol-4-yl)-3,4-dihydro-1H-pyrazino[1,2-a]indole-2-carbonyl]oxazolidin-2-one] | – | 0.0115 µM | 4.05 µM |
| OCC(O)CNc1cc(Cl)c(Cl)c2[nH]cc(-c3cn[nH]c3)c12 (single isomer, unassigned) [Example 262, 3-[[6,7-Dichloro-3-(1H-pyrazol-4-yl)-1H-indol-4-yl]amino]propane-1,2-diol] | – | 0.0772 µM | 3.62 µM |
| CC(=O)N1CCOC(CC(=O)N2CCn3c(c(-c4cn[nH]c4)c4ccc(Cl)c(Cl)c43)C2)C1 (single isomer, unassigned) [Example 264, 2-(4-acetylmorpholin-2-yl)-1-(6,7-dichloro-10-(1H-pyrazol-4-yl)-3,4-dihydropyrazino[1,2-a]indol-2(1H)-yl)ethan-1-one] | > 10 µM | 0.0462 µM | – |
| CC(=O)N1CCOC(CC(=O)N2CCn3c(c(-c4cn[nH]c4)c4ccc(Cl)c(Cl)c43)C2)C1 (single isomer, unassigned) [Example 265, 2-(4-acetylmorpholin-2-yl)-1-(6,7-dichloro-10-(1H-pyrazol-4-yl)-3,4-dihydropyrazino[1,2-a]indol-2(1H)-yl)ethan-1-one] | – | 0.0511 µM | > 10 µM |
| O[C@@H]1C[C@H](Oc2cc(Cl)c(Cl)c3[nH]cc(-c4cn[nH]c4)c23)[C@@H](O)C1 (single isomer, unassigned) [Example 270, 4-[[6,7-Dichloro-3-(1H-pyrazol-4-yl)-1H-indol-4-yl]oxy]cyclopentane-1,3-diol] | – | 0.0207 µM | 0.635 µM |
| O[C@@H]1C[C@H](Oc2cc(Cl)c(Cl)c3[nH]cc(-c4cn[nH]c4)c23)[C@@H](O)C1 (single isomer, unassigned) [Example 271, 4-[[6,7-Dichloro-3-(1H-pyrazol-4-yl)-1H-indol-4-yl]oxy]cyclopentane-1,3-diol] | – | 0.184 µM | 6.75 µM |
| O=C(CO)NC1CCn2c1c(-c1cn[nH]c1)c1ccc(Cl)c(Cl)c12 (single isomer, unassigned) [Example 345, N-(5,6-Dichloro-9-(1H-pyrazol-4-yl)-2,3-dihydro-1H-pyrrolo[1,2-a]indol-1-yl)-2-hydroxyacetamide] | – | 0.0628 µM | 3.97 µM |
| O=C(CO)NC1CCn2c1c(-c1cn[nH]c1)c1ccc(Cl)c(Cl)c12 (single isomer, unassigned) [Example 346, N-(5,6-Dichloro-9-(1H-pyrazol-4-yl)-2,3-dihydro-1H-pyrrolo[1,2-a]indol-1-yl)-2-hydroxyacetamide] | – | 0.00769 µM | 0.914 µM |
| OCCn1cc(-n2cc(-c3cn[nH]c3)c3ccc(Cl)cc32)nn1 [Example 229] | 2.1 µM | – | – |
| CN1C(=O)CCCC1C(=O)N1CCn2c(c(-c3cn[nH]c3)c3ccc(Cl)c(Cl)c32)C1 (centres unmarked) [Example 331, 6-(6,7-Dichloro-10-(1H-pyrazol-4-yl)-1,2,3,4-tetrahydropyrazino[1,2-a]indole-2-carbonyl)-1-methylpiperidin-2-one] | – | 0.083 µM | – |
| COCC(=O)NC(C)C(=O)N1CCn2c(c(-c3cn[nH]c3)c3ccc(Cl)c(Cl)c32)C1 (centres unmarked) [Example 333, N-(1-(6,7-Dichloro-10-(1H-pyrazol-4-yl)-3,4-dihydropyrazino[1,2-a]indol-2(1H)-yl)-1-oxopropan-2-yl)-2-methoxyacetamide] | – | 0.0918 µM | – |
| COC1(C(=O)N2CCn3c(c(-c4cn[nH]c4)c4ccc(Cl)c(Cl)c43)C2)CCOC1 (centres unmarked) [Example 334, (6,7-Dichloro-10-(1H-pyrazol-4-yl)-3,4-dihydropyrazino[1,2-a]indol-2(1H)-yl)(3-methoxytetrahydrofuran-3-yl)methanone] | – | 0.0985 µM | – |
